Measurements from PubChem BioAssay AID1963868 (Molecular Pharmacology Branch, DTP, NCI, 2024).

System: KRAS PDC tumor spheroids (HUVEC+MSC), viability
Experiment: Anticancer human tumor 254851-301-R-J1-PDC patient-derived colon carcinoma cell line growth inhibition [KRAS2]
Details: for IC50: curve of first compound; for viability, T/C: stronger effect = lower value
Method in brief: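 Combination screen of spheroid viability in tumor-cell co-cultures with endothelial (HUVEC) and mesenchymal stem cell stroma. Each agent was tested in half-log dilutions, topping at clinical Cmax or at 10 microM without a known Cmax.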

[1] = second compound 0.0316 µM, first compound 0.0316 µM
[2] = second compound 0.1 µM, first compound 0.0316 µM
[3] = second compound 0.316 µM, first compound 0.0316 µM
[4] = second compound 1 µM, first compound 0.0316 µM
[5] = second compound 3.16 µM, first compound 0.0316 µM
[6] = second compound 0.0316 µM, first compound 0.1 µM
[7] = second compound 0.0316 µM, first compound 0.316 µM
[8] = second compound 0.0316 µM, first compound 1 µM
[9] = second compound 0.0316 µM, first compound 3.16 µM
[10] = second compound 0.0316 µM, first compound 10 µM
[11] = second compound 0.1 µM, first compound 0.1 µM
[12] = second compound 0.1 µM, first compound 0.316 µM
[13] = second compound 0.1 µM, first compound 1 µM
[14] = second compound 0.1 µM, first compound 3.16 µM
[15] = second compound 0.1 µM, first compound 10 µM
[16] = second compound 0.316 µM, first compound 0.1 µM
[17] = second compound 0.316 µM, first compound 0.316 µM
[18] = second compound 0.316 µM, first compound 1 µM
[19] = second compound 0.316 µM, first compound 3.16 µM
[20] = second compound 0.316 µM, first compound 10 µM
[21] = second compound 1 µM, first compound 0.1 µM
[22] = second compound 1 µM, first compound 0.316 µM
[23] = second compound 1 µM, first compound 1 µM
[24] = second compound 1 µM, first compound 3.16 µM
[25] = second compound 1 µM, first compound 10 µM
[26] = second compound 3.16 µM, first compound 0.1 µM
[27] = second compound 3.16 µM, first compound 0.316 µM
[28] = second compound 3.16 µM, first compound 1 µM
[29] = second compound 3.16 µM, first compound 3.16 µM
[30] = second compound 3.16 µM, first compound 10 µM
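Note: spheroids exposed to compounds for seven days before readout.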
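Throughout, for viability, T/C: 100% = DMSO vehicle control luminescence of the spheroids.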

Work on `CC(=O)Nc1cccc(-n2c(=O)n(C3CC3)c(=O)c3c(Nc4ccc(I)cc4F)n(C)c(=O)c(C)c32)c1` + C=CC(=O)N1CCN(c2nc(OCC3CCCN3C)nc3c2CCN(c2cccc4cccc(C)c24)C3)CC1CC#N yielded an IC50 (second compound 0.0316 µM) of 5.65 nM, an IC50 (second compound 0.1 µM) of 5.79 nM and an IC50 (second compound 0.316 µM) of 6.32 nM. The IC50 (second compound 1 µM) was 5.71 nM, the IC50 (second compound 3.16 µM) was 0.569 nM and the viability, T/C (second compound 0.0316 µM, first compound 0.0001 µM) was 103%. It also gave a viability, T/C (second compound 0.0316 µM, first compound 0.000316 µM) of 94.3%, a viability, T/C (second compound 0.0316 µM, first compound 0.001 µM) of 89.5% and a viability, T/C (second compound 0.0316 µM, first compound 0.00316 µM) of 72.1%. The viability, T/C (second compound 0.0316 µM, first compound 0.01 µM) was 29.2%, the viability, T/C [1] was 3.04% and the viability, T/C (second compound 0.1 µM, first compound 0.0001 µM) was 98.1%. It also gave a viability, T/C (second compound 0.1 µM, first compound 0.000316 µM) of 106%, a viability, T/C (second compound 0.1 µM, first compound 0.001 µM) of 95.4% and a viability, T/C (second compound 0.1 µM, first compound 0.00316 µM) of 77.9%. It also gave a viability, T/C (second compound 0.1 µM, first compound 0.01 µM) of 25.1%, a viability, T/C [2] of 2.8% and a viability, T/C (second compound 0.316 µM, first compound 0.0001 µM) of 102%. The viability, T/C (second compound 0.316 µM, first compound 0.000316 µM) was 114%, the viability, T/C (second compound 0.316 µM, first compound 0.001 µM) was 93.5% and the viability, T/C (second compound 0.316 µM, first compound 0.00316 µM) was 84.9%. It also gave a viability, T/C (second compound 0.316 µM, first compound 0.01 µM) of 27.5%, a viability, T/C [3] of 2.51% and a viability, T/C (second compound 1 µM, first compound 0.0001 µM) of 106%. The viability, T/C (second compound 1 µM, first compound 0.000316 µM) was 109%, the viability, T/C (second compound 1 µM, first compound 0.001 µM) was 92.6% and the viability, T/C (second compound 1 µM, first compound 0.00316 µM) was 83.4%. For the same compound, the viability, T/C (second compound 1 µM, first compound 0.01 µM) was 19.1%, the viability, T/C [4] was 1.86% and the viability, T/C (second compound 3.16 µM, first compound 0.0001 µM) was 76.9%. It also gave a viability, T/C (second compound 3.16 µM, first compound 0.000316 µM) of 52.7%, a viability, T/C (second compound 3.16 µM, first compound 0.001 µM) of 40.3% and a viability, T/C (second compound 3.16 µM, first compound 0.00316 µM) of 39.5%. The viability, T/C (second compound 3.16 µM, first compound 0.01 µM) was 0.5% and the viability, T/C [5] was 0.93%.
`COC(=O)c1ccc2c(C(=Nc3ccc(N(C)C(=O)CN4CCN(C)CC4)cc3)c3ccccc3)c(O)[nH]c2c1` + C=CC(=O)N1CCN(c2nc(OCC3CCCN3C)nc3c2CCN(c2cccc4cccc(C)c24)C3)CC1CC#N was tested, and the IC50 (second compound 0.0316 µM) was > 10000 nM, the IC50 (second compound 0.1 µM) was > 10000 nM and the IC50 (second compound 0.316 µM) was > 10000 nM. For the same compound, the IC50 (second compound 1 µM) was > 10000 nM, the IC50 (second compound 3.16 µM) was 583 nM and the viability, T/C [1] was 93.5%. For the same compound, the viability, T/C [6] was 89.8%, the viability, T/C [7] was 98.9% and the viability, T/C [8] was 87.8%. The viability, T/C [9] was 81.7%, the viability, T/C [10] was 83.3% and the viability, T/C [2] was 95.5%. It also gave a viability, T/C [11] of 94.9%, a viability, T/C [12] of 92.3% and a viability, T/C [13] of 83.8%. The viability, T/C [14] was 81.8%, the viability, T/C [15] was 82% and the viability, T/C [3] was 81%. For the same compound, the viability, T/C [16] was 88.5%, the viability, T/C [17] was 86.3% and the viability, T/C [18] was 77.1%. The viability, T/C [19] was 68.1%, the viability, T/C [20] was 77.8% and the viability, T/C [4] was 85.8%. The viability, T/C [21] was 86.2%, the viability, T/C [22] was 86.7% and the viability, T/C [23] was 78%. For the same compound, the viability, T/C [24] was 75.6%, the viability, T/C [25] was 76.3% and the viability, T/C [5] was 70%. For the same compound, the viability, T/C [26] was 65.2%, the viability, T/C [27] was 57.9% and the viability, T/C [28] was 42.3%. It also gave a viability, T/C [29] of 7.1% and a viability, T/C [30] of 0.21%.
For `COc1cc(Nc2ncc3c(n2)-c2ccc(Cl)cc2C(c2c(F)cccc2OC)=NC3)ccc1C(=O)O` + C=CC(=O)N1CCN(c2nc(OCC3CCCN3C)nc3c2CCN(c2cccc4cccc(C)c24)C3)CC1CC#N, the IC50 (second compound 0.0316 µM) was 89.2 nM, the IC50 (second compound 0.1 µM) was 87.2 nM and the IC50 (second compound 0.316 µM) was 89.1 nM. It also gave an IC50 (second compound 1 µM) of 78 nM, an IC50 (second compound 3.16 µM) of 34.6 nM and a viability, T/C [1] of 84.6%. For the same compound, the viability, T/C [6] was 41.6%, the viability, T/C [7] was 30.3% and the viability, T/C [8] was 27.5%. The viability, T/C [9] was 17.7%, the viability, T/C [10] was 9.36% and the viability, T/C [2] was 82.4%. It also gave a viability, T/C [11] of 40%, a viability, T/C [12] of 31.1% and a viability, T/C [13] of 27%. For the same compound, the viability, T/C [14] was 16.2%, the viability, T/C [15] was 8.9% and the viability, T/C [3] was 79.4%. The viability, T/C [16] was 40.6%, the viability, T/C [17] was 32.7% and the viability, T/C [18] was 24.5%. For the same compound, the viability, T/C [19] was 17%, the viability, T/C [20] was 7.34% and the viability, T/C [4] was 73.5%. For the same compound, the viability, T/C [21] was 37.5%, the viability, T/C [22] was 32% and the viability, T/C [23] was 25.9%. For the same compound, the viability, T/C [24] was 16.4%, the viability, T/C [25] was 8.35% and the viability, T/C [5] was 53.9%. The viability, T/C [26] was 22.1%, the viability, T/C [27] was 19.8% and the viability, T/C [28] was 17%. The viability, T/C [29] was 6.88% and the viability, T/C [30] was 1.67%.
With `O=C(c1cc(Cc2n[nH]c(=O)c3ccccc23)ccc1F)N1CCN(C(=O)C2CC2)CC1` + C=CC(=O)N1CCN(c2nc(OCC3CCCN3C)nc3c2CCN(c2cccc4cccc(C)c24)C3)CC1CC#N the IC50 (second compound 0.0316 µM) was > 10000 nM, the IC50 (second compound 0.1 µM) was > 10000 nM and the IC50 (second compound 0.316 µM) was > 10000 nM. The IC50 (second compound 1 µM) was > 10000 nM, the IC50 (second compound 3.16 µM) was > 10000 nM and the viability, T/C [1] was 108%. The viability, T/C [6] was 111%, the viability, T/C [7] was 96% and the viability, T/C [8] was 96.4%. The viability, T/C [9] was 81.5%, the viability, T/C [10] was 84.9% and the viability, T/C [2] was 105%. The viability, T/C [11] was 106%, the viability, T/C [12] was 97.8% and the viability, T/C [13] was 104%. It also gave a viability, T/C [14] of 93.5%, a viability, T/C [15] of 92.6% and a viability, T/C [3] of 101%. For the same compound, the viability, T/C [16] was 99.6%, the viability, T/C [17] was 102% and the viability, T/C [18] was 99.7%. The viability, T/C [19] was 98.4%, the viability, T/C [20] was 92.7% and the viability, T/C [4] was 96.8%. The viability, T/C [21] was 98.7%, the viability, T/C [22] was 101% and the viability, T/C [23] was 92%. It also gave a viability, T/C [24] of 99.8%, a viability, T/C [25] of 92.1% and a viability, T/C [5] of 67.8%. The viability, T/C [26] was 55.4%, the viability, T/C [27] was 72.5% and the viability, T/C [28] was 60.1%. For the same compound, the viability, T/C [29] was 69.4% and the viability, T/C [30] was 69.4%.
